Test results published in PubChem BioAssay (NCI).
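Five concentrations, 48 hours, 96-well plates. At the GI50, growth is halved. TGI denotes the concentration required for complete inhibition of growth.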

How the values were obtained:
Assay in all cases: DTP human tumour cell line panel, 48 h
[1] = tested on: MCF7 breast
[2] = tested on: BT-549 breast
[3] = tested on: T-47D breast
[4] = tested on: MDA-MB-231 breast
[5] = tested on: PC-3 prostate
[6] = tested on: NCI/ADR-RES ovarian
[7] = tested on: HS 578T breast

SMILES | GI50 [1] [µM] | TGI [1] [µM] | GI50 [2] [µM] | TGI [2] [µM] | GI50 [3] [µM] | TGI [3] [µM] | GI50 [4] [µM] | TGI [4] [µM] | GI50 [5] [µM] | TGI [5] [µM] | GI50 [6] [µM] | TGI [6] [µM] | GI50 [7] [µM] | TGI [7] [µM]
COC1=CC(c2ccc[nH]2)=N/C1=C\c1[nH]c(C)c(C(=O)CCCCC(=O)Nc2ccccc2)c1C | 1.37 | 2.75 | 1.77 | 13.4 | 1.99 | 6.14 | 0.396 | 1.95 | 1.15 | 2.43 | 1.89 | 3.69 | – | –
CCCN(CCC)c1ccc(/C=N/NC(=O)c2cccnc2)c(Cl)c1 | 2.59 | 21.1 | 12.9 | 33.4 | 1.07 | 13.9 | 12.4 | 28.5 | 14.1 | > 81.3 | 5.78 | 48.4 | 14.3 | 47.3
COC(=O)C1=C(C(=O)OC)C23C=C(C)C1C2=C(C)C1(CC1)[C@@](C)(O)C3=O (stereo not given in full) | 0.346 | > 100 | 0.404 | 3.3 | 0.515 | 6.4 | 0.309 | 1.56 | 0.386 | 32.9 | 0.303 | 4.24 | 1.37 | 7.61
CCOC(=O)c1sc(=S)c2c(C(=O)OCC)c(C(=O)OCC)sc2c1C(=O)OCC | 15.2 | 29.9 | 21.5 | 45.4 | 23.7 | 95.5 | 14.6 | 32.7 | 8.17 | 21.2 | 17.3 | 35.9 | 17.7 | 47.3
Cc1nc(NC(=O)CCCN2C(=O)c3cccc4cccc(c34)C2=O)sc1C(=O)Nc1cc(C(=O)NCCCN(C)C)n(C)c1 | > 100 | > 100 | – | – | > 100 | > 100 | > 100 | > 100 | > 100 | > 100 | > 100 | > 100 | > 100 | > 100
COc1ccc([N+](=O)[O-])c(S(=O)(=O)c2ccc(Cl)cc2)n1 | 2.24 | 7.29 | 2.75 | 8.97 | 2.12 | 5.41 | 2.83 | 7.43 | 17.3 | 33.8 | 4.93 | > 100 | 13 | 51.1
COc1ccc(-c2nc(-c3nc4ccc(OC)cc4[nH]3)cc3c2[nH]c2ccccc23)cc1 | 2.55 | > 100 | 7.1 | > 100 | 2.27 | > 100 | 8.51 | > 100 | 1.52 | > 100 | 2.1 | > 100 | 2.85 | > 100
Cc1ccc(C)c(-c2csc(Nc3ccc(C)c(C)c3)n2)c1 | 35.9 | > 100 | > 100 | > 100 | > 100 | > 100 | > 100 | > 100 | 7 | > 100 | > 100 | > 100 | 30.6 | > 100
C[C@@]12CCC(=O)C=C1CC[C@H]1C2=CC[C@]2(C)C1CC[C@@]2(C)O (stereo not given in full) | – | > 100 | – | > 100 | – | > 100 | – | > 100 | – | > 100 | – | > 100 | – | > 100
N#Cc1ccnc(N2C(=O)CC[C@H]2C(=O)N(c2cncc(F)c2)[C@H](C(=O)NC2CC(F)(F)C2)c2ccccc2Cl)c1 | 27 | > 100 | > 100 | > 100 | > 100 | > 100 | 50.7 | > 100 | > 100 | > 100 | > 100 | > 100 | 99.6 | > 100
CSc1nc2sc3cc(Cl)ccc3n2c(=N)c1C#N | 3.31 | > 100 | 25.4 | > 100 | 23.7 | > 100 | > 85.7 | > 100 | 42.2 | > 100 | > 42.2 | > 100 | 2.89 | > 24.9
COc1ccc2c(c1)CC[C@@H]1[C@@H]2CC[C@]2(C)C(c3ccco3)=C(C=O)C[C@@H]12 | 8.2 | > 100 | 17.7 | 43.3 | 18.8 | 92.3 | 10.8 | 30.7 | 5.66 | 37.3 | 11.5 | 64.6 | 23.2 | 60
CC(=O)N=c1ccc2nc3c(cc(N)c4ccccc43)oc-2c1 | 0.753 | 2.4 | 2.47 | 7.46 | – | – | 1.25 | 3.92 | 1.05 | 5.83 | 1.62 | 4.95 | – | > 23.8
C=C1C(=O)O[C@H]2[C@H]1CC/C(COC(=O)NCc1c[nH]c3ccc(Cl)cc13)=C\CC[C@@]1(C)O[C@@H]21 | – | – | 1.18 | 2.61 | – | – | 1.66 | 3.3 | 1.52 | 3.08 | 2.84 | 11.3 | 2.45 | 6.82
NS(=O)(=O)c1ccc(N2N=C3c4ccccc4CC3C2c2ccc(Cl)cc2)cc1 (stereo not given) | 25 | 59.5 | – | – | 32.9 | > 100 | 2.89 | 8.24 | 7.17 | 22.6 | 10.3 | 38.5 | 4.61 | 19.2
Cn1cc(C2=C(c3cn(CCN)c4ccccc34)C(=O)NC2=O)c2ccccc21 | 3.72 | > 23.4 | 7.82 | > 23.8 | 5.32 | 14.7 | 6 | 19.2 | 5.14 | > 19.7 | 10.7 | > 25 | 4.32 | 20.2
NS(=O)(=O)c1ccc(CCN=C=S)cc1 | 0.808 | 3.13 | 2.03 | 4.37 | 0.638 | 3.36 | 2.03 | 4.4 | 2.03 | 5.23 | 3.2 | 11.3 | 3.21 | 15.5
COc1cc(C(=O)c2cc3c(cc2C)OCO3)cc(OC)c1OC | 0.0366 | > 100 | 0.211 | > 100 | 0.923 | > 100 | 0.147 | > 100 | 0.141 | > 100 | 0.226 | > 100 | 0.174 | > 100
O=C(/C=C\c1ccc(Cl)cc1Cl)c1cccs1 | – | 41.1 | – | – | – | 55.7 | – | 40.5 | – | 35.2 | – | > 100 | – | 75.3
C[C@@H]1C=C2C(=O)O[C@@H]3CC[C@H](C1)[C@]23O | 2.5 | 13.3 | 4.4 | 17.3 | 3.02 | 15.1 | 3.96 | 17.4 | 3.68 | 14.9 | 11.9 | 95.8 | 12.7 | > 100
C=C(C)[C@@H]1CC[C@]2(C)[C@H](CC[C@@H]3[C@H]4[C@H]5OC[C@@]4(CCC5(C)C)CC[C@]32C)[C@@]1(C)CCCN | 1.57 | 3.04 | 1.67 | 3.12 | 1.88 | 4.21 | 1.84 | 3.54 | 1.74 | 3.29 | 1.95 | 3.89 | 2.1 | 4.61
COc1ccc(-c2ccc(C3CC(c4ccc(Cl)cc4)=NN3)o2)c([N+](=O)[O-])c1 (stereo not given) | > 100 | > 100 | > 100 | > 100 | > 100 | > 100 | > 100 | > 100 | > 100 | > 100 | > 100 | > 100 | > 100 | > 100
NCCNC(=S)S | – | > 100 | – | > 100 | – | > 100 | – | > 100 | – | > 100 | – | > 100 | – | 43
COc1cc2nc(Nc3cccc(F)c3)nc(Nc3cc(C)[nH]n3)c2cc1OC | 1.73 | 3.83 | 1.68 | 3.2 | 1.36 | 4.05 | 1.74 | 3.42 | 1.68 | 3.39 | 1.6 | 3.64 | 1.86 | 4.01
COc1cc(-n2cc(-c3ccc(Cl)cc3)[nH]c2=O)cc(OC)c1OC | 35 | > 100 | 27.1 | 71.8 | – | – | 23.1 | 55.4 | 16.4 | 51.2 | 23.1 | 63.6 | 76.6 | > 100
CCC(C)C(NC(=O)C1CCCN1C(=O)C(NC(=O)C(C)N)C(C)C)C(N)=O (stereo not given) | > 100 | > 100 | > 100 | > 100 | > 100 | > 100 | > 100 | > 100 | > 100 | > 100 | – | – | > 100 | > 100
